This note sets out measurements from patent publication US20140357662A1, “THIENO (2,3 - C) PYRAZOLES FOR USE AS POTASSIUM CHANNEL INHIBITORS” (XENTION LIMITED, priority 2011, published 2014).

In the test the target is T1, rat Kir3.1/3.4 (Rattus norvegicus, UniProt P48548+P63251).
T1 construct: expressed in transfected cells; host or cells: HEK293 (Human Embryonic Kidney 293), stably transfected
T1 sequence (P63251 1-501): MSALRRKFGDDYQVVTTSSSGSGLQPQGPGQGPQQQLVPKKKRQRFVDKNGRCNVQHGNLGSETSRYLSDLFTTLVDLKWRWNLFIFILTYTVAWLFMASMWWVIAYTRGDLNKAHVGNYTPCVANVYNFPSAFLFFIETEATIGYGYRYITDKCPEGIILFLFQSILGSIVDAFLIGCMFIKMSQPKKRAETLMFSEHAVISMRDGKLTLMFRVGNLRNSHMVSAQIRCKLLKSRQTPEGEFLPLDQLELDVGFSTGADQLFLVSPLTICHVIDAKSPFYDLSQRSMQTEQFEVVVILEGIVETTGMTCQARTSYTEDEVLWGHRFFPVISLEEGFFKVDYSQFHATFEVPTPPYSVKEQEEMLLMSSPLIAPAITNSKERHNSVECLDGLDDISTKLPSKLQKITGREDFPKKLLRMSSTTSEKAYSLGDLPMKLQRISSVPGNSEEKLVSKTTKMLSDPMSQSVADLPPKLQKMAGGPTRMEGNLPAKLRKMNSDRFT
T1 sequence (P48548 1-419): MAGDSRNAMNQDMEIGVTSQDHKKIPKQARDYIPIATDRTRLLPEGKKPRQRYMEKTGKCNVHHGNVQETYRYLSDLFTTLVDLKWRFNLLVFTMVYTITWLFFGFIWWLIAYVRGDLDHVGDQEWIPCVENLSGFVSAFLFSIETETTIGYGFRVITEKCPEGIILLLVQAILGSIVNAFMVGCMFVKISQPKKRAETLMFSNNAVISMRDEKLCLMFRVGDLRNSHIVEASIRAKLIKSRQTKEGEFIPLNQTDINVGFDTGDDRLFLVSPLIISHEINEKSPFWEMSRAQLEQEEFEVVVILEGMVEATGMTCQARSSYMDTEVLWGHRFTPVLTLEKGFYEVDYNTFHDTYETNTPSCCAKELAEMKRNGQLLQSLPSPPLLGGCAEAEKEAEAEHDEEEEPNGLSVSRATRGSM
Description: Kir3.1/3.4 Electrophysiology Method (manual whole-cell patch clamp). It counts as cell-based. To be noted: Human Embryonic Kidney 293 stably transfected with rat Kir3.1/3.4; inhibition of leak-subtracted current at -140 mV. As for the experimental part: Compound activity against the recombinant G-protein activated inward rectifier current encoded by the heterotetramer Kir3.1/3.4 was assessed using manual whole-cell patch technique. The heterotetramer forms the pore-forming channel that conducts the acetylcholine/adenosine-activated potassium current in the heart.
For whole-cell patch-clamp studies, cells (Human Embryonic Kidney 293 stably transfected with rat Kir3.1/3.4) were seeded onto glass coverslips before recordings were made. Cells were seeded in sterile 30 mm Petri dishes at a density to enable isolated cells to be selected for patch clamp experiments. The dishes were stored in a humidified, gassed (5% CO2) incubator at 37° C. until use.
Whole-cell patch-clamp recordings of membrane currents were made following gigaohm seal formation between the patch electrode and the cell using HEKA EPC-9/10 amplifiers controlled by Pulse Software (Ver8.5x/8.6x/8.7x, HEKA, Germany). Coverslips seeded with cells were placed in a recording chamber mounted on the stage of an inverted microscope. During the experiment, the cell of interest was continuously superfused with bather solution delivered via a cannula placed in close proximity to the cell to enable control of the extracellular solution environment. Only those cells with a current <−500 pA (current at −140 mV) were used for experiments. During experiments, series resistance was compensated by a minimum of 70%.
Electrophysiology voltage-step protocols and analysis of data were performed as follows. Data was sampled at 5 kHz, and filtered with a −3 dB bandwidth of 2.5 kHz. Cells were held at a voltage of −60 mV. Currents were evoked by a depolarising voltage step to +60 mV (100 ms) before a ramp-repolarisation (0.4 V·s^−1) to −140 mV (100 ms) before returning to −60 mV. The command waveform was repeatedly applied every 10 s throughout the experiment. Mean currents during 1-99% of the time at −140 mV were analysed using Pulsefit software (v8.x, HEKA, Germany). The voltage protocol was repeatedly applied to achieve a stable current baseline in bather before the test substance was superfused via the cannula in close proximity to the cell under investigation. The test substance was allowed to equilibrate during which time voltage protocol was repeatedly applied and recorded. On reaching steady-state inhibition, the cell was superfused with an identical bather solution containing zero external potassium chloride (replaced by equimolar NaCl). The identical current measurement was made in the absence of potassium to assess the passive leak at −140 mV. The leak current was subtracted from the control and steady-state drug current values. The percentage inhibition of the leak-subtracted current in the presence of test substance was calculated relative to the control leak-subtracted pre-drug value. Internal patch-pipette solution contained in mM: 110 KCl, 20 NaCl, 0.9 GTPγS, 5 Mg-ATP, 5 EGTA, 10 HEPES, pH7.2 corrected with KOH. The external superfusate composition in mM was: 150 (or 160) NaCl, 10 (or 0) KCl, 3 CaCl2, 1 MgCl, 10 HEPES, pH 7.4 corrected with NaOH.

What is called IC50 is the midpoint of a concentration-inhibition curve. Higher therefore signals lower potency. Regarding `CC(C)NC(=O)c1sc2[nH]nc(N3CCC(COCCN4CCCC4)CC3)c2c1-c1ccccc1` [Compound 24, N-isopropyl-4-phenyl-3-[4-(2-pyrrolidin-1-ylethoxymethyl)-1-piperidyl]-1H-thieno[2,3-c]pyrazole-5-carboxamide], the half-maximal inhibitory concentration (IC50) is less than 500 nM.

For `CNC(=O)c1sc2[nH]nc(N3CCC(COCCN4CCCC4)CC3)c2c1-c1ccccc1` [Compound 25, N-methyl-4-phenyl-3-[4-(2-pyrrolidin-1-ylethoxymethyl)-1-piperidyl]-1H-thieno[2,3-c]pyrazole-5-carboxamide], the IC50 is less than 500 nM.
